For eleven compounds, TGI and GI50 results are on record in PubChem BioAssay (NCI).

Assay in all cases: NCI tumour cell line growth inhibition, 48 h
The test system of assay [1] is ACHN renal.
The test system of assay [2] is HCT-116 colon.
For assay [3], the system named is HCT-15 colon.
Assay [4] has as its system HOP-92 NSCLC.
Assay [5] concerns KM12 colon.
Assay [6] has as its system NCI-H23 lung.
The subject of assay [7] is NCI-H460 lung.
For assay [8], the system named is RPMI-8226 leukemia.
For assay [9], the system named is M14 melanoma.
The subject of assay [10] is SNB-19 CNS.
Assay [11] concerns UACC-62 melanoma.

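Compound exposure: 48 hours, 5 concentrations, 96-well plates. GI50: concentration for 50% inhibition of growth. TGI denotes the concentration required for complete inhibition of growth.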

In the case of `Nc1c(Cl)ncnc1NCC1(CO)CCC1`, the TGI in assay [1], in assay [2], in assay [3], in [4], in assay [5] and in assay [6] was over 100 µM throughout. The TGI in assay [7] and in assay [8] was over 100 µM each time.

On to `C=C1CN(C(=O)c2cc3cc(OC)c(OC)c(OC)c3[nH]2)c2cc([N+](=O)[O-])ccc21`, for which the TGI in assay [2], in assay [3], in assay [4], in [5], in [9] and in [6] was over 100 µM throughout. In addition, the TGI in assay [7], in assay [8], in assay [10] and in assay [11] was over 100 µM each time.

On to `O=C1CCCn2c3ccccc3c3ccnc1c32`, for which the TGI in assay [2], in assay [3], in assay [4], in [5], in [6] and in assay [7] was over 100 µM each time. The results for the TGI in [8], in assay [10] and in assay [11] were over 100 µM, over 100 µM and 98 µM, respectively.

Turning to `O=C1NC(N2CCOCC2)=N/C1=C\c1ccccc1`, the TGI in assay [1], in [2], in assay [3], in [4], in assay [5] and in assay [9] was over 100 µM each time. Also, the TGI in assay [6], in assay [8], in [10] and in [11] was over 100 µM throughout.

Turning to `NC1=CN2c3ccccc3N(CC(=O)N3CCOCC3)C2C=C1` (stereo not drawn), the TGI in assay [1], in [2], in assay [3], in [4], in assay [5] and in [9] was over 100 µM in each case. Moreover, the TGI in [6], in assay [7], in assay [10] and in [11] was over 100 µM each time.

Consider `CSc1nc(NC2CC2)c2c(n1)Sc1nc3ccccc3n1N=C2`, for which the TGI was 31.1 µM in [1]; 27.4 µM in [2]; over 100 µM in assay [3]; 73.9 µM in assay [4]; over 100 µM in assay [5]; over 100 µM in assay [9]. Moreover, the TGI in assay [6] is over 100 µM; in assay [7] it was over 100 µM; in assay [10], 72.5 µM; in assay [11], 76.9 µM.

Take `O=C(/C=C/c1ccco1)c1ccc(Nc2ccnc3cc(Cl)ccc23)cc1`: the GI50 in [1] is over 100 µM; in [4], 15 µM; in [5] it was 3.17 µM; in assay [9], 70.7 µM; in [6], over 100 µM; in assay [7], 2.13 µM. The GI50 in [10] and in assay [11] was over 100 µM each time. Moreover, the TGI in [1] is over 100 µM; in [4] it was 62 µM; in [5] it was over 100 µM; in [9] it was over 100 µM; in [6] it was over 100 µM; in assay [7], over 100 µM. The TGI in assay [10] and in assay [11] was over 100 µM throughout.

For `O=c1[nH]nc(Nc2ccccc2)c2nnn(Cc3ccccc3)c12`, the TGI in assay [1], in assay [2], in assay [3], in assay [4], in assay [5] and in [9] was over 100 µM in each case. Also, the TGI in assay [6], in assay [7], in assay [10] and in assay [11] was over 100 µM each time.

For the compound `COc1ccc(/C=N/N=C(N)N)c(C(=O)O)c1OC`, the TGI in assay [1], in assay [2], in assay [3], in assay [5], in assay [9] and in [6] was over 100 µM throughout. Further, the TGI in assay [7], in assay [8], in assay [10] and in assay [11] was over 100 µM throughout.

As for `CN(C)CCNc1ccccn1`, the TGI in assay [1], in [2], in assay [3], in assay [4], in [5] and in assay [9] was over 100 µM each time. Moreover, the TGI in assay [6], in [7], in [10] and in [11] was over 100 µM in each case.

As to `c1ccc2c3c(c(N4CCNCC4)nc2c1)CCCC3`, the TGI was found to be 27.6 µM in assay [1]; 27.5 µM in [2]; 29.3 µM in assay [3]; 27.2 µM in assay [4]; 33.7 µM in [5]; 19 µM in assay [9]. The TGI in [6] was 28 µM; in assay [7] it was 29.4 µM; in assay [10], 29.2 µM; in [11] it was 30.4 µM.
